Data from ChEMBL document CHEMBL1201862, “PubChem BioAssay data set” (2004).
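Protocol summary: plate cells (96-well), add compound at 5 concentrations, incubate 48 h, interpolate endpoints linearly. GI50: concentration for 50% inhibition of growth.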 Active and inactive are the calls of the source. Rule as the data show it: active = GI50 up to about 1.1 µM and inactive = higher.

Tests used:
Experiment in all cases: NCI tumour cell line growth inhibition, 48 h
[1] = system: OVCAR-5
[2] = system: NCI-H23
[3] = system: SK-OV-3
[4] = system: SF-539
[5] = system: LOX IMVI
[6] = system: SK-MEL-5
[7] = system: UO-31
[8] = system: SNB-75
[9] = system: A549
[10] = system: HL-60
[11] = system: Malme-3M
[12] = system: OVCAR-4
[13] = system: A498
[14] = system: SF-268
[15] = system: CCRF-CEM
[16] = system: CAKI-1
[17] = system: NCI-H522
[18] = system: SK-MEL-2

Structure (SMILES) | GI50 [1] | GI50 [2] | GI50 [3] | GI50 [4] | GI50 [5] | GI50 [6] | GI50 [7] | GI50 [8] | GI50 [9] | GI50 [10] | GI50 [11] | GI50 [12] | GI50 [13] | GI50 [14] | GI50 [15] | GI50 [16] | GI50 [17] | GI50 [18]
Cn1cnc([N+](=O)[O-])c1Sc1nc2cccnc2[nH]1 | > 100 µM (inactive) | 88.7 µM (inactive) | > 100 µM (inactive) | > 100 µM (inactive) | 79.8 µM (inactive) | > 100 µM (inactive) | 89.7 µM (inactive) | > 100 µM (inactive) | 90.2 µM (inactive) | 12.5 µM (inactive) | > 100 µM (inactive) | 41.1 µM (inactive) | > 100 µM (inactive) | 74.8 µM (inactive) | 14.5 µM (inactive) | 18.3 µM (inactive) | – | –
COC1C=CC23c4cc5c(cc4C(O)OC2CN(C)C3C1)OCO5 (configuration not stated) | 3.34 µM (inactive) | 2.94 µM (inactive) | – | 1.08 µM (active) | 1.29 µM (inactive) | 0.434 µM (active) | 2.69 µM (inactive) | – | 2.4 µM (inactive) | 1.08 µM (active) | 1.9 µM (inactive) | 1.35 µM (inactive) | 3.1 µM (inactive) | 3.37 µM (inactive) | 1.84 µM (inactive) | 2.98 µM (inactive) | 2 µM (inactive) | –
CC(C)(C)NN=C1C(C)(C)C(=NNC(C)(C)C)C1(C)C | > 100 µM (inactive) | > 100 µM (inactive) | > 100 µM (inactive) | > 100 µM (inactive) | > 100 µM (inactive) | > 100 µM (inactive) | > 100 µM (inactive) | > 100 µM (inactive) | > 100 µM (inactive) | > 100 µM (inactive) | > 100 µM (inactive) | > 100 µM (inactive) | – | > 100 µM (inactive) | – | > 100 µM (inactive) | > 100 µM (inactive) | –
C/C(CN1C(=O)c2ccccc2C1=O)=N\NS(C)(=O)=O | > 100 µM (inactive) | > 100 µM (inactive) | > 100 µM (inactive) | > 100 µM (inactive) | – | > 100 µM (inactive) | > 100 µM (inactive) | > 100 µM (inactive) | > 100 µM (inactive) | > 100 µM (inactive) | > 100 µM (inactive) | > 100 µM (inactive) | > 100 µM (inactive) | > 100 µM (inactive) | > 100 µM (inactive) | > 100 µM (inactive) | > 100 µM (inactive) | > 100 µM (inactive)
O=C(O)CCSC(=O)Nc1cccc2ccccc12 | > 100 µM (inactive) | > 100 µM (inactive) | > 100 µM (inactive) | > 100 µM (inactive) | > 100 µM (inactive) | > 100 µM (inactive) | > 100 µM (inactive) | > 100 µM (inactive) | > 100 µM (inactive) | – | > 100 µM (inactive) | > 100 µM (inactive) | > 100 µM (inactive) | > 100 µM (inactive) | > 100 µM (inactive) | > 100 µM (inactive) | – | –
O=C(Cc1ccccc1)NN1C(=O)C(Cl)C1c1ccc(O)cc1 (configuration not stated) | > 100 µM (inactive) | > 100 µM (inactive) | > 100 µM (inactive) | – | > 100 µM (inactive) | > 100 µM (inactive) | 64.7 µM (inactive) | 47.2 µM (inactive) | > 100 µM (inactive) | 62.7 µM (inactive) | > 100 µM (inactive) | – | – | > 100 µM (inactive) | > 100 µM (inactive) | > 100 µM (inactive) | > 100 µM (inactive) | > 100 µM (inactive)
N/C(=N\N=C=C1C(=O)Nc2ccc(F)cc21)NO | – | > 100 µM (inactive) | 59.2 µM (inactive) | > 100 µM (inactive) | > 100 µM (inactive) | > 100 µM (inactive) | – | 21.3 µM (inactive) | > 100 µM (inactive) | 47.5 µM (inactive) | > 100 µM (inactive) | > 100 µM (inactive) | > 100 µM (inactive) | > 100 µM (inactive) | 98.2 µM (inactive) | 28 µM (inactive) | 86.1 µM (inactive) | > 100 µM (inactive)
CCO/C=C\C12CCCC1NC(c1ccccc1)(c1ccccc1)O2 (configuration not stated) | 16.5 µM (inactive) | 28.4 µM (inactive) | 40.4 µM (inactive) | 25.3 µM (inactive) | – | 17.1 µM (inactive) | 28.8 µM (inactive) | 19.5 µM (inactive) | 32.8 µM (inactive) | 18.2 µM (inactive) | 25.9 µM (inactive) | 35.8 µM (inactive) | 53.5 µM (inactive) | 35.8 µM (inactive) | 21.5 µM (inactive) | 23.3 µM (inactive) | 33.7 µM (inactive) | 23.2 µM (inactive)
COc1ccc(/C=C\c2cc(OC)c(OC(C)=O)c(OC)c2)cc1 | 28.7 µM (inactive) | 13.3 µM (inactive) | 51.8 µM (inactive) | 2.32 µM (inactive) | – | 5.55 µM (inactive) | 15.7 µM (inactive) | 2.84 µM (inactive) | 5.18 µM (inactive) | – | 19 µM (inactive) | 26.4 µM (inactive) | 14.2 µM (inactive) | 10.5 µM (inactive) | 5.46 µM (inactive) | 25.1 µM (inactive) | 15.5 µM (inactive) | 7.53 µM (inactive)
